US20200306295A1, “METHOD AND DEVICE FOR ANNIHILATION OF Staphylococcus aureus” (priority 2017, published 2020)

Legend:
stationary-phase MRSA = assay: Time-killing assay in PBS with or without pulsed laser (CFU enumeration); assay type: cell-based, S. aureus
Description: To quantify viable bacterial cells, CFU experiments were performed. 100 μl of sample analyte was transferred into a 96-well plate and then three or four ten-fold serial dilution achieved by transferring 20 μl bacterial culture into 180 μl 1×PBS in the next dilution row. After serial dilution, an aliquot (4 μl) from each well was spotted onto sterile TSA plates. After incubating the plates overnight (˜18 hours) at 37° C., the colonies were enumerated, and cell number was calculated in CFU/ml. For each CFU enumeration experiment, three independent replicates were applied.
Stationary-phase MRSA was prepared, washed and resuspended in 1×PBS at two-times of its original concentration. […] After laser treatment, the droplets were resuspended into 200 μl of 1×PBS (1:40 dilution) supplemented with antibiotics at different concentrations in a mini centrifuge tube (89166-278, VWR international). For example, daptomycin was added into MRSA solution after laser treatment at desired concentration of 0×MIC, 5×MIC, 10×MIC, 30×MIC, or 100×MIC supplemented with 50 μg/ml CaCl2). Corresponding groups without laser treatment were also conducted for comparison. These tubes were incubated within an orbital incubator (37° C., 200 rpm) for different incubation time. At each specific time point, 40 μl of aliquot from each group was transferred to a 96-well plate for follow-up CFU enumerating assay. In the case of tobramycin, additional antibiotic washing by 1×PBS was performed before the CFU experiment to avoid antibiotic interference. For time-killing assay in fresh human whole blood, similar protocol was followed as above, except that 1×PBS was replaced by fresh human whole blood and the initial stationary-phase MRSA solution was diluted by ten times with a concentration of ˜10^7 CFU/ml.

[1] = test system: S. aureus (ATCC 6538) biofilm; conditions: blue light plus low-concentration H2O2
MRSA USA300 [2] = assay: In vivo MRSA mice wound model (blue light, H2O2, fusidic acid); design: species or system Balb/c mice
Source text: To initiate the formation of a skin wound, five groups (n=5) of eight-week old female Balb/c mice (obtained from Harlan Laboratories, Indianapolis, Ind., USA) were disinfected with ethanol (70%) and shaved on the middle of the back (approximately a one-inch by one-inch square region around the injection site) one day prior to infection as described from a reported procedure (3). To prepare the bacterial inoculum, an aliquot of overnight culture of MRSA USA300 was transferred to fresh Tryptic soy broth and shaken at 37° C. until an OD600 value of ˜1.0 was achieved. The cells were centrifuged, washed once with PBS, re-centrifuged, and then re-suspended in PBS. Mice subsequently received an intradermal injection (40 μL) containing 2.40×10^9 CFU/mL MRSA USA300. An open wound formed at the site of injection for each mouse, ˜60 hrs post-infection.
One group of mice was left untreated (negative control). Each group of mice receiving a particular treatment regimen was housed separately in a ventilated cage with appropriate bedding, food, and water. Mice were checked twice daily during infection and treatment to ensure no adverse reactions were observed. Mice were treated twice daily (once every 12 hours) for three days, before they were humanely euthanized via CO2 asphyxiation 12 hours after the last dose was administered. The region around the skin wound was lightly swabbed with ethanol (70%) and excised. The tissue was subsequently homogenized in PBS. The homogenized tissue was then serially diluted in PBS before plating onto mannitol salt agar plates. Plates were incubated for at least 19 hours at 37° C. before viable MRSA CFU/mL were counted for each group. Outlier was removed based upon the Dixon Q Test.

MRSA USA300 [3] = test system: MRSA USA300
Description: Thereafter, an aliquot (20 μL) of the bacterial suspension was transferred onto a glass slide. Samples were exposed to blue light at different time-lengths and variable light intensities. […] The solutions were cultured for 20 min. The solution was serially diluted in sterile PBS and transferred to LB plates in order to enumerate the viable number of MRSA colony-forming units (CFUs). […] Data are presented as viable MRSA CFU/mL and percent survival of MRSA CFU/mL in the treated groups.
Additive was defined as an FIC index of 1. Antagonism was defined as an FIC index of >4.

[4] = agent alone, topical, twice a day for three days

OO [H2O2, hydrogen peroxide]
killing of stationary-phase MRSA (stationary-phase MRSA; 220 μM with laser treatment, within 2 hours): 4 log
killing of stationary-phase MRSA (stationary-phase MRSA; alone, at 22 mM high concentration): minor killing
MRSA killed inside biofilm [1]: 92%
pus formation in wound after sacrifice (MRSA USA300 [2]; [4]): didn't show this sign
CFU reduction in wound tissue compared to the control group (MRSA USA300 [2]; blue light (24 J/cm^2) and 13.2 mM H2O2, twice daily for three days): around 1.5 log
CFU reduction in wound tissue compared to fusidic acid-treated group (MRSA USA300 [2]; blue light and H2O2-treated group): around one more log reduction
pus formation in wound after sacrifice (MRSA USA300 [2]; blue light plus H2O2): didn't show this sign
MRSA killing (CFUs) (MRSA USA300 [3]; 13.2 mM H2O2 combined with blue light 108 J/cm^2, ~10^7 MRSA): eradicated all MRSA
MRSA scavenged (MRSA USA300 [3]; 5-min culture with H2O2 after 2-min blue light exposure (24 J/cm^2)): 60%
antimicrobial efficiency relative to 2-min blue light alone (MRSA USA300 [3]; H2O2 20 min, 13.2 mM after 2-min blue light (24 J/cm^2)): Two times antimicrobial efficiency
FIC index (MRSA USA300 [3]; blue light and H2O2 against MRSA, ≤0.5 is synergy, according to estimation): ≤ 0.38

CC(=O)O[C@H]1C[C@@]2(C)[C@@H](C[C@@H](O)[C@H]3[C@@]4(C)CC[C@@H](O)[C@@H](C)[C@@H]4CC[C@@]32C)/C1=C(\CCC=C(C)C)C(=O)O [fusidic acid]
pus formation in wound after sacrifice (MRSA USA300 [2]; [4]): showed the formation of pus
